Reference: patent EP4763837A1, “PHOTOCHROMIC COMPOUND, CURABLE COMPOSITION, OPTICAL ARTICLE, LENS, AND EYEGLASSES” (TOKUYAMA CORPORATION, priority 2023, dated 2025)
“And” between values parts separate entries of the source, which are not always exact repeats. Equal entries are not always repeated.

How the values were obtained:
[1] = Solubility of photochromic compound in polymerizable compounds; type: physicochemical; set-up: key: 1: No haze is seen when checked under transmission of light, and the sample is completely dissolved.; 2: A very thin haze is seen to the extent that it can be seen under transmission of light.; 3: A thin haze that can be seen under transmission of light is seen.; 4: A haze can be seen even without transmission of light; conditions: 35 µmol/g in radical polymerizable compound composition of Example 21, 65 to 70°C; for Dissolution for 15 min / Dissolution for 30 min / Dissolution for 45 min: stirring and ultrasonic irradiation; for Dissolution for 1 hour: head reads 60 min in Tables 8 to 14
Experimental: The photochromic compounds according to Examples and Comparative examples shown in Table 5 were evaluated for solubility in polymerizable compounds.
Specifically, a sample was prepared by adding each of the photochromic compounds to the composition, which consisted of a radical polymerizable compound, among the curable compositions used in Example 21.
Note that, this test was performed using "YOKAI-KUN USS-1" manufactured by NIHONSEIKI KAISHA LTD. under the following conditions: • Dissolution temperature: 65 to 70°C • Stirring condition: Stirring dial of 5. Ultrasonic irradiation condition: Irradiation interval of 3 sec.
Dissolution was checked every 15 minutes up to 1 hour later, the sample was visually checked by transmitting light through the sample, and a degree of dissolution was evaluated according to the following four evaluation criteria.
• 1: No haze is seen when checked under transmission of light, and the sample is completely dissolved. • 2: A very thin haze is seen to the extent that it can be seen under transmission of light. • 3: A thin haze that can be seen under transmission of light is seen. • 4: A haze can be seen even without transmission of light.
A shorter time required for the evaluation result to be 1 means higher solubility.

[2] = Photochromic property of photochromic laminate made by coating method; type: physicochemical; conditions: for Residual ratio / Color developing density at 23°C: laminate by coating method; for Residual ratio: A96/A0 x 100 after 96 hours accelerated degradation, xenon weather meter X25; for Color developing density at 23°C: absorbance difference after 240 seconds irradiation at the maximum absorption wavelength of the same line
Text: First, the photochromic compound obtained in Example 1, a photoinitiator, and a polymerizable compound were mixed to obtain a curable composition.
The polymerizable compound was a combination of the following radical polymerizable monomers:
Polyethylene glycol dimethacrylate (average molecular weight: 736): 42 parts by mass • Polyethylene glycol dimethacrylate (average molecular weight: 536): 12 parts by mass • Trimethylolpropane methacrylate: 38 parts by mass γ-Methacryloyloxypropyltrimethoxysilane: 2 parts by mass Glycidyl methacrylate: 1 part by mass.
Note that, in the curable composition, the photochromic compound was added in an amount of 0.25 mmol taking a total amount of the radical polymerizable monomers as 100 g.
Phenylbis(2,4,6-trimethylbenzoyl)phosphine oxide (photoinitiator: Omnirad 819): 0.3 parts by mass Ethylene bis(oxyethylene) bis[3-(5-tert-butyl-4-hydroxy-m-tolyl) propionate] (stabilizer, Irganox 245): 1 part by mass Bis(1,2,2,6,6-pentamethyl-4-piperidyl)sebacate: 3 parts by mass Leveling agent (L-7001) manufactured by DuPont Toray Specialty Materials K.K.: 0.1 parts by mass.
Using this curable composition, a photochromic laminate was obtained by a lamination method including polymerization as follows.
First, a thiourethane plastic lens with a center thickness of 2 mm and a refractive index of 1.60 was prepared as an optical substrate. Note that, the thiourethane plastic lens had been alkaline-etched in a 10% sodium hydroxide aqueous solution at 50°C for 5 minutes in advance, and then thoroughly washed with distilled water.
A spin coater (1H-DX2, manufactured by MIKASA CO., LTD) was used to coat a surface of the above-mentioned plastic lens with a moisture-curing primer (product name: TR-SC-P, manufactured by Tokuyama Corporation) at a rotation speed of 70 rpm for 15 seconds, followed by 1000 rpm for 10 seconds. Then, about 2 g of the photochromic curable composition obtained above was spin-coated at a rotation speed of 60 rpm for 40 seconds, followed by 600 rpm for 10 to 20 seconds so as to achieve a photochromic coating layer with a thickness of 40 µm.
The lens of which surface had been coated with the photochromic curable composition (photochromic coating layer) was irradiated with light for 90 seconds in a nitrogen gas atmosphere using a metal halide lamp with an output of 200 mW/cm^2 to cure the coating. The resultant was then further heated at 110°C for 1 hour to produce a photochromic laminate with a photochromic layer.
Photochromic laminates were produced using the photochromic compounds obtained in Examples 2 to 20 in the same manner as in Example 21.
Photochromic laminates were obtained using photochromic compounds represented by Formulae (A) to (D) below in the same manner as in Example 21. [drawing 89] [drawing 90] [drawing 91] [drawing 92] [drawing 93]
The resulting photochromic laminates were evaluated by the below-mentioned methods. • (1) Photochromic property • [1] Maximum absorption wavelength (λmax): This is the maximum absorption wavelength after color development determined by a spectrophotometer manufactured by Otsuka Electronics Co., Ltd. (instantaneous multichannel photo detector MCPD3000) and was used as an index of a color tone upon color development. • [2] Color developing density at 23°C (A23): This is a difference between an absorbance {ε(240)} after irradiation with light at 23°C for 240 seconds and an absorbance ε(0) when not irradiated with light at the maximum absorption wavelength and was used as an index of a color developing density. The higher this value is, the better a photochromic property is. • [3] Color fading half-life at 23°C [τ1/2 (sec).)]: This is a period of time taken by an absorbance at the maximum absorption wavelength of a sample to decrease to 1/2 of {ε(240)-ε(0)} when irradiation is stopped after irradiation with light at 23°C for 240 seconds, and was used as an index of a color fading rate. The shorter this period of time is, the faster the color fading rate is. • [4] […]

| SMILES | Dissolution for 15 min [1] | Dissolution for 30 min [1] | Dissolution for 45 min [1] | Dissolution for 1 hour [1] | Residual ratio [2] | Color developing density at 23°C [2] | Color fading half-life at 23°C [2] |
| --- | --- | --- | --- | --- | --- | --- | --- |
| CCC(C)C1(CC)c2cc(OC)ccc2-c2c1c1c(c3cc(OC)ccc23)OC(c2ccc(OC)cc2)(c2ccc(N3CCOCC3)cc2)C=C1 (stereo not drawn) [Formula (3-2)] | 3 | 1 | 1 | 1 | – | – | – |
| CCCCCC1(CCCC)c2ccccc2-c2c1c1c(c3cc(OC)c(N4CCCc5ccccc54)cc23)OC(c2ccc(OC)cc2)(c2ccc(OCCC)cc2)C=C1 (stereo not drawn) [Formula (16-1)] | – | – | – | – | 59% | 1.29 - | – |
| CCCCC1(C(C)CC)c2ccccc2-c2c1c1c(c3cc(OC)c(N4CCOCC4)cc23)OC(c2ccc(OC)cc2)(c2ccc(OC)cc2)C=C1 (stereo not drawn) [Formula (20-1)] | 3 | 2 | 1 | 1 | 48% and 44% | – | – |
| CCCOc1ccc(C2(c3ccc(OC)cc3)C=Cc3c4c(c5cc(OC)c(OC)cc5c3O2)-c2ccc(Sc3cccc(C(F)(F)F)c3)cc2C4(CC)CCC)cc1 (stereo not drawn) [Formula (72-3)] | – | – | – | – | 57% | – | – |
| CCCOc1ccc(C2(c3ccc(OC)cc3)C=Cc3c4c(c5cc(C)c(OC)cc5c3O2)-c2ccc(N3CCOc5ccccc53)cc2C4(C)CC)cc1 (stereo not drawn) [Formula (75-2)] | – | – | – | – | 64% | – | 2.33 min |
| CCCCC1(CC)c2ccccc2-c2c1c1c(c3cc(OC)c(-c4ccc(N(c5ccccc5)c5ccccc5)cc4)cc23)OC(c2ccc(N(C)c3ccccc3)cc2)(c2ccc(OCCC)c(F)c2)C=C1 (stereo not drawn) [Formula (76-6)] | – | – | – | – | 68% | – | 1.17 min |
| CCCCC1(CC)c2ccccc2-c2c1c1c(c3cc(OC)c(-c4ccccc4N4CCOCC4)cc23)OC(c2ccc(OC)cc2)(c2ccc(OC)cc2)C=C1 (stereo not drawn) [Formula (81-2)] | – | – | – | – | – | – | 1.67 min |
| CCCCC1(CC)c2cc(N(C)c3ccccc3)ccc2-c2c1c1c(c3cc(OC)c(OC)cc23)OC(c2ccc(OC)cc2)(c2ccc(OCCC)cc2)C=C1 (stereo not drawn) [Formula (82-1)] | 3 | 2 | 1 | 1 | – | – | – |
| CCCC1(CC)c2ccccc2-c2c1c1c(c3cc(OC)c(N(C)c4ccccc4)cc23)OC(c2ccc(OC)cc2)(c2ccc(N(c3ccccc3)c3ccccc3)cc2)C=C1 (stereo not drawn) [Formula (83-2)] | – | – | – | – | 74% | 1.25 - | 1.53 min |
| CCCC1(CC)c2cc(C)ccc2-c2c1c1c(c3cc(OC)c(-c4ccc(N5CCOCC5)cc4)cc23)OC(c2ccc(C)cc2)(c2ccc(N(C)c3ccccc3)cc2)C=C1 (stereo not drawn) [Formula (84-1)] | – | – | – | – | 62% | – | 2 min |
| CCCCCCC1(CCCC)c2cc(OC)ccc2-c2c1c1c(c3cc(OC)c(Sc4c(C)cccc4C)cc23)OC(c2ccc(OC)cc2)(c2ccc(N3CCOCC3)cc2)C=C1 (stereo not drawn) [Formula (85-1)] | 3 | 2 | 1 | 1 | – | – | – |
| CCCOc1ccc(C2(c3ccc(N(C)c4ccccc4)cc3)C=Cc3c4c(c5cc(-c6ccc(OC)cc6OC)c(OC)cc5c3O2)-c2ccccc2C4(C)CC)cc1F (stereo not drawn) [Formula (86-1)] | – | – | – | – | 58% | – | – |
| CCCC1(CC)c2cc(Sc3c(C)cccc3C)ccc2-c2c1c1c(c3cc(OC)ccc23)OC(c2ccc(OC)cc2)(c2ccc(N(C)c3ccccc3)cc2)C=C1 (stereo not drawn) [Formula (88-1)] | – | – | – | – | 68% | – | 0.717 min |
| CCCC1(C)c2ccccc2-c2c1c1c(c3cc(OC)c(-c4c(OC)cc(OC)cc4OC)cc23)OC(c2ccc(OC)cc2)(c2ccc(N(c3ccccc3)c3ccccc3)cc2)C=C1 (stereo not drawn) [Formula (89-1)] | 4 | 2 | 1 | 1 | – | – | – |
| COc1ccc(C2(c3ccc(N4CCOCC4)cc3)C=Cc3c4c(c5ccc(OC)cc5c3O2)-c2ccc(OC)cc2C42CC(C)(C)CC(C)(C)C2)cc1 (stereo not drawn) [Formula (E), reference compound] | 4 | 3 | 3 | 2 | – | – | – |
| CCC1(CC)c2ccccc2-c2c1c1c(c3cc(OC)c(N(C)c4ccccc4)cc23)OC(c2ccc(OC)cc2)(c2ccc(OC)cc2)C=C1 [Formula (F), reference compound] | 4 | 3 | 3 | 2 | – | – | – |
| COc1ccc(C2(c3ccc(N4CCOCC4)cc3)C=Cc3c4c(c5cc(-c6ccc(N7CCOCC7)cc6)c(OC)cc5c3O2)-c2ccc(C)cc2C4(C)C)cc1 (stereo not drawn) [Formula (G), reference compound] | 4 | 3 | 3 | 2 | – | – | – |
| COc1ccc(C2(c3ccc(OC)cc3)C=Cc3c4c(c5ccc(OC)cc5c3O2)-c2ccc(OC(F)(F)F)cc2C4(C)C)cc1 [Formula (H), reference compound] | 4 | 3 | 3 | 2 | – | – | – |
| CCCOc1ccc(C2(c3ccc(OC)cc3)C=Cc3c4c(c5cc(OC)c(OC)cc5c3O2)-c2ccc(N(C)c3ccccc3)cc2C4(C)C)cc1 (stereo not drawn) [Formula (I), reference compound] | 4 | 4 | 3 | 3 | – | – | – |
| CCC1(CC)CCC2(CC1)c1cc(OC)ccc1-c1c2c2c(c3cc(OC)c(Sc4c(C)cccc4C)cc13)OC(c1ccc(OC)cc1)(c1ccc(N3CCOCC3)cc1)C=C2 (stereo not drawn) [Formula (J), reference compound] | 4 | 3 | 3 | 2 | – | – | – |
| COc1ccc(C2(c3ccc(N4CCOCC4)cc3)C=Cc3c4c(c5cc(Sc6c(C)cccc6C)c(OC)cc5c3O2)-c2ccc(OC)cc2C4(C)C)cc1 (stereo not drawn) [Formula (K), reference compound] | 4 | 4 | 3 | 3 | – | – | – |
| COc1ccc(C2(c3ccc(N(c4ccccc4)c4ccccc4)cc3)C=Cc3c4c(c5cc(-c6c(OC)cc(OC)cc6OC)c(OC)cc5c3O2)-c2ccccc2C4(C)C)cc1 (stereo not drawn) [Formula (L), reference compound] | 4 | 3 | 2 | 1 | – | – | – |
